Tests used:
serpentine leaf miner [1] = experiment: Test Example 2: controlling effects against serpentine leaf miner, Example 1 dilution with polyoxyethylene arylether phosphoric acid ester; assay type: in vivo, Liriomyza trifolii
Method: (§1) The above components are mixed, and the obtained solution is diluted 2,000 times or 4,000 times with water containing a polyoxyethylene alkyl ether phosphoric acid ester, followed by spraying (active ingredient concentration: 25 ppm or 12.5 ppm).
(§2) Protective value (%)=(1−(the number of pupae at treated section/the number of pupae at untreated section))×100
Kidney bean planted in a pot having a diameter of 7 cm was put in a breeding case wherein adults of serpentine leaf miner were released and permitted to lay eggs for 2 days. Thereafter, the test plant was taken out and left for 1 day, and then, a water-diluted liquid containing 50 ppm of a polyoxyethylene arylether phosphoric acid ester, prepared by replacing the polyoxyethylene alkyl ether phosphoric acid ester in the above Example 1 by a polyoxyethylene arylether phosphoric acid ester, was sprayed twice on each of the front and rear sides of the Kidney bean leaf by means of a hand spray. After drying in air, the Kidney bean was left to stand for 5 days in an illuminated constant temperature chamber at 25° C., whereupon the number of pupae on each leaf was counted, and the protective value was calculated in the same manner as in Test Example 1. The test was repeated twice. As the polyoxyethylene arylether phosphoric acid ester, and ADEKA COL CS-1361E (manufactured by ADEKA) was used.
For the purpose of comparison, a water-diluted liquid n having no polyoxyethylene arylether phosphoric acid ester added, was prepared, and spray treatment was carried out in the same manner.

serpentine leaf miner [2] = experiment: Test Example 3: controlling effects against serpentine leaf miner, liquid composition of Example 4 diluted with water; assay type: in vivo, Liriomyza trifolii
Method: […] of Compound 1 and 20.0 g of a polyoxyalkylene phosphoric acid ester surfactant are dissolved in 74.7 g of N,N-dimethylacetamide to obtain 100 g of a transparent liquid composition containing 5 wt % of Compound 1.
as §2
Kidney bean planted in a pot having a diameter of 7 cm was put in a breeding case wherein adults of serpentine leaf miner were released and permitted to lay eggs for 2 days. Thereafter, the test plant was taken out and left for 2 days, the liquid composition obtained in accordance with the above Example 4 was diluted with water to prepare a test liquid containing 50 ppm or 100 ppm of the polyoxyalkylene phosphoric acid ester surfactant. Each test liquid was a suspension solution having fine particles uniformly dispersed. The suspension solution was sprayed twice on each of the front and rear sides of the Kidney bean leaf by means of a hand spray. After drying in air, the Kidney bean was left to stand for 5 days in an illuminated constant temperature chamber at 25° C., whereupon the number of pupae on each leaf was counted, and the protective value was calculated in the same manner as in Test Example 1. The test was repeated twice. As the polyoxyalkylene phosphoric acid ester surfactant, ADEKA COL PS-440E (manufactured by ADEKA) and PHOSPHANOL RS-610 (manufactured by Toho Chemical Industry, Co., Ltd.) as polyoxyethylene alkyl ether phosphoric acid esters, and ADEKA COL CS-1361E (manufactured by ADECA) as a polyoxyethylene arylether phosphoric acid ester were used.
(§3) For the purpose of comparison, a water-diluted liquid having no polyoxyethylene alkyl ether phosphoric acid ester added, was prepared, and spray treatment was carried out in the same manner.

[3] = system: serpentine leaf miner (Liriomyza trifolii); experiment: Test Example 1: controlling effects against serpentine leaf miner, Example 1 dilution with polyoxyethylene alkyl ether phosphoric acid ester; assay type: in vivo
Method: as §1
Kidney bean planted in a pot having a diameter of 7 cm was put in a breeding case wherein adults of serpentine leaf miner (Liriomyza trifolii) were released and permitted to lay eggs for 2 days. Thereafter, the test plant was taken out and left for 1 day, and then, a water-diluted liquid containing 100 ppm or 250 ppm of the polyoxyethylene alkyl ether phosphoric acid ester prepared in the above Example 1, was sprayed twice on each of the front and rear sides of the Kidney bean leaf by means of a hand spray. After drying in air, the Kidney bean was left to stand for 5 days in an illuminated constant temperature chamber at 25° C., whereupon the number of pupae on each leaf was counted, and the protective value was calculated by the following formula. The test was repeated twice. As the polyoxyethylene alkyl ether phosphoric acid ester, PHOSPHANOL RD-510Y, PHOSPHANOL RS-610 and PHOSPHANOL RS-710 (manufactured by Toho Chemical Industry Co., Ltd.) and ADEKA COL PS-440E (manufactured by ADEKA) were used.
as §3, §2

Measured: Protective value (%)

CC(NC(=O)c1cc(Cl)cc(Br)c1NC(=O)c1cc(Br)nn1-c1ncccc1Cl)C1CC1 (stereo not drawn) [Compound 1, 3-Bromo-N-(2-bromo-4-chloro-6-(1-cyclopropylethylcarbamoyl)phenyl)-1-(3-chloropyridin-2-yl)-1H-pyrazole-5-carboxamide]
0%: serpentine leaf miner [1]; Compound 1 12.5 ppm, no polyoxyethylene arylether phosphoric acid ester (comparative section) | serpentine leaf miner [2]; Compound 1 12.5 ppm, no polyoxyalkylene phosphoric acid ester surfactant (comparative section) | [3]; Compound 1 12.5 ppm, no polyoxyethylene alkyl ether phosphoric acid ester (comparative section) | [3]; Compound 1 25 ppm, no polyoxyethylene alkyl ether phosphoric acid ester (comparative section)
89%: serpentine leaf miner [2]; Compound 1 12.5 ppm + RS-610 50 ppm (Example 4 composition), foliar spray on Kidney bean, pupae counted after 5 days
46%: serpentine leaf miner [2]; Compound 1 25 ppm, no polyoxyalkylene phosphoric acid ester surfactant (comparative section)
77%: serpentine leaf miner [2]; Compound 1 12.5 ppm + PS-440E 50 ppm (Example 4 composition), foliar spray on Kidney bean, pupae counted after 5 days
50%: serpentine leaf miner [1]; Compound 1 25 ppm, no polyoxyethylene arylether phosphoric acid ester (comparative section)
100%: serpentine leaf miner [1]; Compound 1 12.5 ppm + CS-1361E 50 ppm, foliar spray on Kidney bean, pupae counted after 5 days | serpentine leaf miner [1]; Compound 1 25 ppm + CS-1361E 50 ppm, foliar spray on Kidney bean, pupae counted after 5 days | serpentine leaf miner [2]; Compound 1 25 ppm + CS-1361E 100 ppm (Example 4 composition), foliar spray on Kidney bean, pupae counted after 5 days | [3]; Compound 1 12.5 ppm + PS-440E 100 ppm, foliar spray on Kidney bean, pupae counted after 5 days | [3]; Compound 1 12.5 ppm + PS-440E 250 ppm, foliar spray on Kidney bean, pupae counted after 5 days | [3]; Compound 1 12.5 ppm + RS-610 250 ppm, foliar spray on Kidney bean, pupae counted after 5 days | [3]; Compound 1 12.5 ppm + RS-710 250 ppm, foliar spray on Kidney bean, pupae counted after 5 days | [3]; Compound 1 25 ppm + PS-440E 100 ppm, foliar spray on Kidney bean, pupae counted after 5 days | [3]; Compound 1 25 ppm + PS-440E 250 ppm, foliar spray on Kidney bean, pupae counted after 5 days | [3]; Compound 1 25 ppm + RD-510Y 250 ppm, foliar spray on Kidney bean, pupae counted after 5 days | [3]; Compound 1 25 ppm + RS-610 250 ppm, foliar spray on Kidney bean, pupae counted after 5 days | [3]; Compound 1 25 ppm + RS-710 250 ppm, foliar spray on Kidney bean, pupae counted after 5 days
70%: [3]; Compound 1 12.5 ppm + RD-510Y 250 ppm, foliar spray on Kidney bean, pupae counted after 5 days
